“Also recorded” adds a separate entry of the source. Where two headings read alike, the source gives them in different places.
Key:
[1] = Physical appearance of omega-3 emulsions on storage; type: physicochemical; details: added in the oil phase
[2] = Physical and chemical stability monitoring of emulsion prototypes with different antioxidants and additives
Procedure: A variety of ophthalmic compositions were evaluated which contained antioxidants with the intent to prevent the degradation of the omega-3 oil components. A common problem with omega-3 oils is their propensity to degrade and become rancid over time.
Emulsion prototypes were designed using a range of excipients including different surfactants, antioxidants and aqueous additives. The physical and chemical stability of these prototype formulations were monitored over 3, 6 and/or 12 months at accelerated and/or long-term storage conditions. […] Details of these stability studies are provided in the examples herein.

[3] = Chemical stability of omega-3 oils in emulsions (FIG. 1, FIG. 2); details: emulsions of Table 10

| Compound | Effect of antioxidant or additive on stability of omega-3 oils [2] | Effect of excipient on chemical stability of omega-3 oils in emulsion [3] | Effect on physical stability of omega-3 oils in emulsion [1] | Effect of antioxidant or additive on stability of omega-3 oils ([2]; in ophthalmic emulsions) |
| --- | --- | --- | --- | --- |
| COc1ccc(O)c(C(C)(C)C)c1 [BHA, Butylated hydroxyanisole] | – | – | improved physical stability | stabilizing effect |
| CC(=O)Oc1c(C)c(C)c2c(c1C)CCC(C)(CCC[C@H](C)CCC[C@H](C)CCCC(C)C)O2 (stereo partly drawn) [Vitamin E acetate] | – | – | – | did not show beneficial effects; also recorded: led to degradation of omega-3 oil |
| O=C([O-])CN(CCN(CC(=O)[O-])CC(=O)O)CC(=O)O.[Na+].[Na+] [EDTA, edetate disodium] | – | No significant impact | – | did not impact stability |
| vitamin E | not effective | – | – | – |

Further lines, with some results ahead:

| Effect of antioxidant or additive on stability of omega-3 oils [2] | Effect of excipient on chemical stability of omega-3 oils in emulsion [3] | Compound | Effect on physical stability of omega-3 oils in emulsion [1] | Effect of antioxidant or additive on stability of omega-3 oils ([2]; in ophthalmic emulsions) |
| --- | --- | --- | --- | --- |
| did not impact stability | No significant impact | CC(=O)C(=O)O [pyruvate] | – | – |
| stabilizing effect | – | Cc1cc(C(C)(C)C)c(O)c(C(C)(C)C)c1 [BHT, 2,6-bis(1,1-dimethylethyl)-4-methylphenol] | improved physical stability | – |
| – | worsened the chemical stability | Cc1c(C)c2c(c(C)c1O)CC[C@@](C)(CCC[C@H](C)CCC[C@H](C)CCCC(C)C)O2 [alpha tocopherol] | – | – |
| did not impact stability | – | OC[C@H]1O[C@H](O[C@H]2O[C@H](CO)[C@@H](O)[C@H](O)[C@H]2O)[C@H](O)[C@@H](O)[C@@H]1O [trehalose] | – | – |

From patent US20250228913A1, “STABILIZED OMEGA-3 OPHTHALMIC COMPOSITIONS” (Allergan, Inc., priority 2014, published 2025)
